Laboratory results reported in patent US12187728B2 (Raze Therapeutics, Inc., priority 2015, dated 2025).

Target: T1, Human MTHFD2 (Homo sapiens, UniProt P13995)
T1 construct: residues 36-350 in Uniport ID P13995; His6 (N); made in house; host or cells: E. coli
T1 sequence (P13995 36-350): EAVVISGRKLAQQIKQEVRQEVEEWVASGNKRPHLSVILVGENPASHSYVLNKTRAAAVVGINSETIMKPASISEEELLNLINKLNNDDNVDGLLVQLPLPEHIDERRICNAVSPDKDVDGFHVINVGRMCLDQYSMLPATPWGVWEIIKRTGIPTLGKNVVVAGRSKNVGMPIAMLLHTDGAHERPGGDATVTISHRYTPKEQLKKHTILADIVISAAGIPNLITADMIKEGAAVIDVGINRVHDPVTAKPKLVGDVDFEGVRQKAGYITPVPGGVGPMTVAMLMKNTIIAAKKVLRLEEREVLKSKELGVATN
Experiment: MTHFD2 Activity Assay (dehydrogenase activity, diaphorase/resazurin coupled fluorescence)
Format: biochemical
Settings: inhibitory activity (IC50 and/or binding constant); 0.2 nM MTHFD2, 11 concentrations
Excerpt: Human MTHFD2 (residues 36-350 in Uniport ID P13995) was expressed as an N-terminal His6 tagged protein and purified in E. coli using nickel capture followed by size-exclusion chromatography.
MTHFD2 dehydrogenase activity oxidizes methylene tetrahyrofolate to methenyl-tetrahydrofolate with the concomitant reduction of NAD to NADH. MTHFD2 dehydrogenase activity was followed by coupling the generation of NADH to diaphorase catalyzed […] of resazurin to fluorescent resorufin. Briefly, control (DMSO) or compound was incubated with 0.2 nM MTHFD2 for 15 minutes in 10.5 μl assay buffer containing 100 mM Hepes, pH 8.0, 5 mM MgCl2, 5 mM KH2PO4, 0.05% BSA, 0.01% Tween-20 in a 384 well Griener, low volume, black plate. 10 μl of substrate buffer containing 70 μM CH2-THF, 1 mM NAD^+, 100 μM Resazurin and 0.42 mg/ml diaphorase was then added to initiate the reaction and the reaction plate was incubated for 30 minutes. 5 μl of 250 mM EDTA was then added to each well to stop the reaction and MTHFD2 activity was quantified by measuring resorufin fluorescence emission at 598 nm following excitation at 525 nm. Activity in positive control wells containing the complete reaction mixture and DMSO alone was set to 100% while activity in negative control wells with the complete reaction mix without MTHFD2 was set to 0%. 11 concentrations of each compound were tested and the fluorescent data at each concentration was normalized to the positive and negative controls and represented as % inhibition. Median inhibitory concentration (IC50) was calculated by fitting % inhibition at each concentration to a 4 parameter logistic fit equation using Graphpad Prizm.
The compound numbers correspond to the compound numbers in Table A (i.e., the example numbers).

Cn1c(N[C@H]2CCCNC2=O)nc2c1c(=O)n(Cc1cc3ccccc3[nH]1)c(=O)n2C [Example 213, (S)-1-((1H-indol-2-yl)methyl)-3,7-dimethyl-8-(2-oxopiperidin-3-ylamino)-1H-purine-2,6(3H,7H)-dione]
IC50: 10 to 1000 nM

COc1ccc2[nH]c(Cn3c(=O)c4c(nc(N)n4C)n(C)c3=O)cc2c1 [Example 243, 8-amino-1-((5-methoxy-1H-indol-2-yl)methyl)-3,7-dimethyl-1H-purine-2,6(3H,7H)-dione]
IC50: > 10000 nM

Cn1c(NCCCO)nc2c1c(=O)n(Cc1ccc(Cl)c(F)c1)c(=O)n2C [Example 23, 1-[(4-chloro-3-fluorophenyl)methyl]-8-[(3-hydroxypropyl)amino]-3,7-dimethyl-2,3,6,7-tetrahydro-1H-purine-2,6-dione]
IC50: 1000 to 5000 nM

Cn1c(N[C@@H]2CC[C@H](CO)C2)nc2c1c(=O)n(Cc1ccc(Cl)c(Cl)c1)c(=O)n2C (stereo in doubt) [Example 275, 1-(3,4-dichlorobenzyl)-8-((1R,3S)-3-(hydroxymethyl)cyclopentylamino)-3,7-dimethyl-1H-purine-2,6(3H,7H)-dione]
IC50: 10 to 1000 nM

Cn1c(Nc2ccnc(C3CC(O)C3)c2)nc2c1c(=O)n(Cc1ccc(Cl)c(Cl)c1)c(=O)n2C (stereo not drawn) [Example 344, 1-(3,4-diclorobenzyl)-8-(2-(3-hydroxylcyclobutyl)pyridine-4-ylamino)-3,7-dimethyl-1-H-purine-2,6(3H,7H)-dione]
IC50: 1000 to 5000 nM

Cn1c(NCCCO)nc2[nH]c(=O)n(Cc3ccc(Cl)c(Cl)c3)c(=O)c21 [Example 97, 1-[(3,4-dichlorophenyl)methyl]-8-[(3-hydroxypropyl)amino]-7-methyl-2,3,6,7-tetrahydro-1H-purine-2,6-dione]
IC50: 1000 to 5000 nM

Cn1c(Nc2cccc(CCC(N)=O)n2)nc2c1c(=O)n(Cc1cc3c(Cl)cccc3[nH]1)c(=O)n2C [Example 304, 3-(6-(1-((4-chloro-1H-indol-2-yl)methyl)-3,7-dimethyl-2,6-dioxo-2,3,6,7-tetrahydro-1H-purin-8-ylamino)pyridin-2-yl)propanamide]
IC50: 10 to 1000 nM

Cn1c(N)nc2c1c(=O)n(Cc1cc3cc(Cl)ccc3[nH]1)c(=O)n2C [Example 241, 8-amino-1-((5-chloro-1H-indol-2-yl)methyl)-3,7-dimethyl-1H-purine-2,6(3H,7H)-dione]
IC50: 5000 to 10000 nM

Cc1ccc2cc(Cn3c(=O)c4c(nc(Nc5ccncc5)n4C)n(C)c3=O)[nH]c2c1 [Example 326, 3,7-dimethyl-1-((6-methyl-1H-indol-2-yl)methyl)-8-(pyridin-4-ylamino)-1H-purine-2,6(3H,7H)-dione]
IC50: 10 to 1000 nM

Cn1c(Nc2ccnc(CNC(N)=O)n2)nc2c1c(=O)n(Cc1cc3c(Cl)cccc3[nH]1)c(=O)n2C [Example 462, 1-((4-(1-((4-chloro-1H-indol-2-yl)methyl)-3,7-dimethyl-2,6-dioxo-2,3,6,7-tetrahydro-1H-purin-8-ylamino)pyrimidin-2-yl)methyl)urea]
IC50: 10 to 1000 nM

Cn1c(Nc2ccncc2)nc2c1c(=O)n(Cc1ccc3c(Cl)cccc3c1)c(=O)n2C [Example 402, 1-((5-chloronaphthalen-2-yl)methyl)-3,7-dimethyl-8-(pyridin-4-ylamino)-1H-purine-2,6(3H,7H)-dione]
IC50: 10 to 1000 nM

Cc1ccc(Nc2nc3c(c(=O)n(Cc4cc5c(Cl)cccc5[nH]4)c(=O)n3C)n2C)cn1 [Example 383, 1-((4-chloro-1H-indol-2-yl)methyl)-3,7-dimethyl-8-(6-methylpyridin-3-ylamino)-1H-purine-2,6(3H,7H)-dione]
IC50: 10 to 1000 nM

Cc1ccc2[nH]c(Cn3c(=O)c4c(nc(N5CCC(O)CC5)n4C)n(C)c3=O)cc2c1 [Example 193, 8-(4-hydroxypiperidin-1-yl)-3,7-dimethyl-1-((5-methyl-1H-indol-2-yl)methyl)-1H-purine-2,6(3H,7H)-dione]
IC50: 10 to 1000 nM

Cn1c(Nc2ccnc(CCC(=O)N3CCNCC3)n2)nc2c1c(=O)n(Cc1cc3c(Cl)cccc3[nH]1)c(=O)n2C [Example 428, 1-((4-chloro-1H-indol-2-yl)methyl)-3,7-dimethyl-8-(2-(3-oxo-3-(piperazin-1-yl)propyl)pyrimidin-4-ylamino)-1H-purine-2,6(3H,7H)-dione]
IC50: 10 to 1000 nM

Cn1c(Nc2ccnc([C@H]3C[C@@H]3C(=O)O)c2)nc2c1c(=O)n(Cc1ccc(Cl)c(Cl)c1)c(=O)n2C (racemic) [Example 279, (±)-trans-2-(4-((1-(3,4-dichlorobenzyl)-3,7-dimethyl-2,6-dioxo-2,3,6,7-tetrahydro-1H-purin-8-yl)amino)pyridin-2-yl)cyclopropanecarboxylic acid]
IC50: 10 to 1000 nM

Cn1c(N[C@@H]2CCCC[C@H]2O)nc2c1c(=O)n(Cc1ccc(C(F)(F)F)cc1)c(=O)n2C [Example 113, 8-((1R,2R)-2-hydroxycyclohexylamino)-3,7-dimethyl-1-(4-(trifluoromethyl)benzyl)-1H-purine-2,6(3H,7H)-dione]
IC50: > 10000 nM

Cn1c(NS(C)(=O)=O)nc2c1c(=O)n(Cc1cc3c(Cl)cccc3[nH]1)c(=O)n2C [Example 336, N-[1-[(4-chloro-1H-indol-2-yl)methyl]-3,7-dimethyl-2,6-dioxo-purin-8-yl]methanesulfonamide]
IC50: 10 to 1000 nM

Cn1c(NC2CNC(=O)C2)nc2c1c(=O)n(Cc1ccc(Cl)c(Cl)c1)c(=O)n2C (racemic) [Example 88, (±)-1-[(3,4-dichlorophenyl)methyl]-3,7-dimethyl-8-[(5-oxopyrrolidin-3-yl)amino]-2,3,6,7-tetrahydro-1H-purine-2,6-dione]
IC50: 10 to 1000 nM

Cn1c(=O)n(Cc2ccc(Cl)c(Cl)c2)c(=O)c2c1ncn2CC(N)=O [Example 246, 2-(1-(3,4-dichlorobenzyl)-3-methyl-2,6-dioxo-2,3-dihydro-1H-purin-7(6H)-yl)acetamide]
IC50: > 10000 nM

Cn1c(Nc2cccc(CCC(=O)O)n2)nc2c1c(=O)n(Cc1ccc(Cl)c(Cl)c1)c(=O)n2C [Example 282, 3-(6-(1-(3,4-dichlorobenzyl)-3,7-dimethyl-2,6-dioxo-2,3,6,7-tetrahydro-1H-purin-8-ylamino)pyridin-2-yl)propanoic acid]
IC50: 10 to 1000 nM

Cn1c(Nc2ccccc2)nc2c1c(=O)n(Cc1ccc(Cl)c(Cl)c1)c(=O)n2C [Example 127, 1-(3,4-dichlorobenzyl)-3,7-dimethyl-8-(phenylamino)-1H-purine-2,6(3H,7H)-dione]
IC50: 1000 to 5000 nM

CNC(=O)CCc1nccc(Nc2nc3c(c(=O)n(Cc4cc5c(Cl)cccc5[nH]4)c(=O)n3C)n2C)n1 [Example 415, 3-(4-(1-((4-chloro-1H-indol-2-yl)methyl)-3,7-dimethyl-2,6-dioxo-2,3,6,7-tetrahydro-1H-purin-8-ylamino)pyrimidin-2-yl)-N-methylpropanamide]
IC50: 10 to 1000 nM

Cn1c(Nc2ccnc(CCC(=O)N3CCCC3)n2)nc2c1c(=O)n(Cc1cc3c(Cl)cccc3[nH]1)c(=O)n2C [Example 417, 1-((4-chloro-1H-indol-2-yl)methyl)-3,7-dimethyl-8-(2-(3-oxo-3-(pyrrolidin-1-yl)propyl)pyrimidin-4-ylamino)-1H-purine-2,6(3H,7H)-dione]
IC50: 10 to 1000 nM

Cn1c(NC2CCNC2=O)nc2c1c(=O)n(Cc1cc3ccccc3[nH]1)c(=O)n2C (racemic) [Example 222, (±)-1-((1H-indol-2-yl)methyl)-3,7-dimethyl-8-(2-oxopyrrolidin-3-ylamino)-1H-purine-2,6(3H,7H)-dione]
IC50: 10 to 1000 nM

Cn1c(N[C@H]2CC[C@@H](C(=O)O)C2)nc2c1c(=O)n(Cc1ccc(Cl)c(Cl)c1)c(=O)n2C [Example 64, (1R,3S)-3-(1-(3,4-dichlorobenzyl)-3,7-dimethyl-2,6-dioxo-2,3,6,7-tetrahydro-1H-purin-8-ylamino)cyclopentanecarboxylic acid]
IC50: 10 to 1000 nM

Cn1c(=O)n(Cc2ccc(Cl)c(Cl)c2)c(=O)c2c1nc(NC1CCCC(C(=O)O)C1)n2CCC(N)=O (stereo not drawn) [Example 318, 3-(7-(3-amino-3-oxopropyl)-1-(3,4-dichlorobenzyl)-3-methyl-2,6-dioxo-2,3,6,7-tetrahydro-1H-purin-8-ylamino)cyclohexanecarboxylic acid]
IC50: 10 to 1000 nM

Cn1c(Nc2ccnc(CNC(=O)CN)n2)nc2c1c(=O)n(Cc1cc3c(Cl)cccc3[nH]1)c(=O)n2C [Example 440, 2-amino-N-((4-(1((4-chloro-1H-indol-2-yl)methyl)-3,7-dimethyl-2,6-dioxo-2,3,6,7-tetrahydro-1H-purin-8-ylamino)pyrimidin-2-yl)methyl)acetamide]
IC50: 10 to 1000 nM
